Measured values: US20250064813A1, “STABLE LIQUID PHARMACEUTICAL FORMULATION” (GENUV Inc., priority 2022, published 2025)

Experiment: In-vial stability, 2 weeks: HPLC content and total impurities
Type: physicochemical
Procedure: The glass vials containing the compositions prepared in Example 4-1 were stored for 2 weeks under the two conditions below, and stability study was performed.
Aliquots of the compositions in the glass vial were taken, and the content of Compound 1 and total impurities were measured with HPLC. Measurements were performed in duplicates, and the average value was reported. Impurities were quantified by percentage area relative to the main Compound 1 peak and based on Relative Response Factor (RRF) of 1.0. As a positive control, the dried powder of Compound 1 was used and tested in the same way.

Compound 1 Content (%) (t = 0): 100.5% | Total Impurities (%) (t = 0): 0.15% | Compound 1 Content (%) (t = 2w (40° C./75% RH)): 100.3% | Total Impurities (%) (t = 2w (40° C./75% RH)): 0.14%
Compound: CC(=O)Nc1cccc(-n2c(=O)n(C3CC3)c(=O)c3c(Nc4ccc(I)cc4F)n(C)c(=O)c(C)c32)c1 [Compound 1, N-(3-{3-Cyclopropyl-5-[(2-fluoro-4-iodophenyl)amino]-6,8-dimethyl-2,4,7-trioxo-3,4,6,7-tetrahydropyrido[4,3-d]pyrimidin-1 (2H)-yl}phenyl) acetamide]
